{"source": "patent US11975003B2", "about": "“Methods and compositions for treatment of Zika virus infection” (priority 2016, dated 2024)", "key": {"[1]": {"tested_on": "Zika virus Uganda MR 766", "experiment": "Virus yield reduction (VYR) assay", "format": "cell-based", "description": "(§1) The compounds were administered at a range of concentrations up to 100 μg/ml. Compounds were prepared in MEM just prior to testing. Inhibition of virus replication was determined by microscopic examination of the infected cells for cytopathic effect, increase of neutral red (NR) dye uptake (colorimetric determination), and virus yield reduction. Uninfected cells treated with a compound were assayed as above for cytotoxicity control. The EC50, EC90 and SI (selectivity index) values were determined in Vero76, Huh7 and RD cells as analyzed by the neutral red uptake dye assay and virus yield reduction assays. The results are presented from 3 or more independent experiments (standard deviations not shown. Three Zika virus strains were used in this in vitro study, Malaysia strain P 6-740, Uganda strain MR-766 and Puerto Rico strain PRVABC-59. Cells were maintained under standard conditions."}, "[2]": {"tested_on": "Zika virus Puerto Rico PRVABC59", "experiment": "Virus yield reduction (VYR) assay", "format": "cell-based", "conditions": "Puerto Rico PRVABC59", "description": "as §1"}, "[3]": {"tested_on": "Zika virus Malaysia P 6-740", "experiment": "Virus yield reduction (VYR) assay", "format": "cell-based", "description": "as §1"}, "[4]": {"tested_on": "Zika virus PRVABC-59"}, "[5]": {"tested_on": "Zika virus KF993678 (Thai isolate)", "experiment": "Non-human primate Zika virus model, heterologous challenge day 70 (Example 6)", "format": "in vivo, Indian rhesus macaques", "conditions": "Groups 1 and 2, no additional dosing"}, "[6]": {"tested_on": "Zika virus (Malaysia, strain P 6-740)", "experiment": "Murine Zika virus model, re-challenge on day 28 (Example 4)", "format": "in vivo, AG129 mice", "description": "In this example, the surviving mice from the study described in Example 3 were subject to re-challenge on day 28 post-infection. On day 28, the only surviving mice in a treatment group were in group 1 (7/8 mice), the normal controls (group 8, 8/8 mice) and the virus sham treated groups (group 2, 8/8 mice and group 6, 8/8/mice). All surviving mice (with the exception of normal controls) were administered a challenge of Zika virus identical to the initial challenge.\nNo animals in Groups 1, 2 and 6 were administered additional doses of Compound A on day 28 prior to or after re-challenge. In this experiment, the sham infected mice of groups 2 and 6 served as the control groups to analyze the effects of treatment of Compound A on immune system activation (note that mice in group 2 received the same 300 mg/kg/day dose of Compound A as the mice in group 1 on day 0). The survival of the mice was monitored through day 60 post-initial infection."}, "[7]": {"tested_on": "Zika virus PRVABC-59", "conditions": "for plasma viremia: n=4; for samples with Zika virus below the limit of quantification: FIG. 15D"}}, "note": "Read-outs that look alike come from different tables or passages of the source."}
{"smiles": "Cl.Nc1ncnc2c([C@@H]3N[C@H](CO)[C@@H](O)[C@H]3O)c[nH]c12", "note": "[Compound A]", "values": [{"measurement": "VYR assay EC90", "setting": "[1]; Huh-7 cells", "value": 6.4, "unit": "µg/mL"}, {"measurement": "VYR assay EC90", "setting": "[1]; RD cells", "value": "5.4 ± 1.1", "unit": "µg/mL"}, {"measurement": "VYR assay EC90", "setting": "[1]; Vero76 cells", "value": 8.7, "unit": "µg/mL"}, {"measurement": "VYR assay EC90", "setting": "[2]; Huh-7 cells", "value": "6.7 ± 1.2", "unit": "µg/mL"}, {"measurement": "VYR assay EC90", "setting": "[2]; RD cells", "value": "10.0 ± 2.2", "unit": "µg/mL"}, {"measurement": "VYR assay EC90", "setting": "[2]; Vero76 cells, virus harvested 5 dpi, 1 log10 CCID50 reduction", "value": "18.2 ± 2.7", "unit": "µg/mL"}, {"measurement": "VYR assay EC90", "setting": "[3]; Huh-7 cells", "value": "4.9 ± 0.9", "unit": "µg/mL"}, {"measurement": "VYR assay EC90", "setting": "[3]; Vero76 cells", "value": "13.8 ± 3.7", "unit": "µg/mL"}, {"measurement": "plasma viremia through day 28 post-infection", "setting": "[4]; Group 1: 200 mg/kg split dose day 0 (+90 min), 25 mg/kg b.i.d. days 1-9, IM, n=5", "value": "did not develop detectable viremia"}, {"measurement": "Zika virus RNA in CSF, saliva and urine", "setting": "[4]; Group 1, FIG. 13A", "value": "only sporadically detectable Zika virus RNA"}, {"measurement": "magnitude of viremia in viremic animals", "setting": "[4]; Group 2: 200 mg/kg split dose day 0 only, IM", "value": "significantly reduced as compared to control"}, {"measurement": "animals with detectable plasma viremia", "setting": "[4]; Group 2: 200 mg/kg split dose day 0 only, IM, n=5", "value": "only two animals from this group showing viremia"}, {"measurement": "Zika virus RNA in CSF, saliva and urine", "setting": "[4]; Group 2, FIG. 13B", "value": "only sporadically detectable Zika virus RNA"}, {"measurement": "tolerability", "setting": "[4]; IM, Groups 1 and 2", "value": "well-tolerated"}, {"measurement": "viral RNA in serum after heterologous challenge", "setting": "[5]; FIG. 14A", "value": "minimal viral RNA"}, {"measurement": "viral RNA in CSF after heterologous challenge", "setting": "[5]; FIG. 14B", "value": "minimal viral RNA"}, {"measurement": "re-challenged mice surviving at day 60", "setting": "[6]; group 1 (300 mg/kg/day from day 0, 7 survivors), second Zika challenge day 28, no additional dosing", "value": 7, "unit": "mice"}, {"measurement": "survival after first Zika challenge on day 28", "setting": "[6]; group 2 (300 mg/kg/day from day 0, sham infected), no dosing at challenge", "value": "no survival was observed past day 51"}, {"measurement": "plasma viremia", "setting": "[7]; Group 1: 200 mg/kg day 0, 25 mg/kg b.i.d. days 1-9, IM", "value": "did not develop detectable viremia"}, {"measurement": "plasma viremia", "setting": "[7]; Group 2: 150 mg/kg day 0, 19 mg/kg b.i.d. days 1-9, IM", "value": "only one animal from this group showing slight viremia"}, {"measurement": "plasma viremia", "setting": "[7]; Group 3: 100 mg/kg day 0, 13 mg/kg b.i.d. days 1-9, IM", "value": "only two animals from this group showing slight viremia"}, {"measurement": "plasma viremia", "setting": "[7]; Group 4: 50 mg/kg day 0, 6 mg/kg b.i.d. days 1-9, IM", "value": "viremic between days 4 to 7 post-infection"}, {"measurement": "tolerability", "setting": "[7]; IM, Groups 1 to 4", "value": "well-tolerated"}, {"measurement": "samples with Zika virus below the limit of quantification", "setting": "[7]; total dose 492 mg/kg (Group 2)", "value": "3 out of 4"}, {"measurement": "samples with Zika virus below the limit of quantification", "setting": "[7]; total dose 650 mg/kg (group 1)", "value": "4 out of 4"}, {"measurement": "maximum Zika virus titers vs control", "setting": "[7]; total doses greater than 334 mg/kg (Groups 1 to 3), p <0.0001", "value": "decreased dramatically"}]}
